Data set [1] has as its target T1, signal peptide peptidase (SPPase) (Canis lupus familiaris, UniProt A0A8I3P6M4).
T1 construct: translated in reticulocyte lysate in the presence of endoplasmic reticulum-(ER) derived rough microsomes; from tissue; host or cells: nuclease-treated rough microsomes from dog pancreas
Briefly: In vitro translation/translocation of SP-E1/100 and core-E1/100 with ER-derived rough microsomes: SPPase processing. It is filed as biochemical, dog. Particulars: 10 μM (Z-LL)2-ketone; for Production of the 19 kDa core species (core179) from core-E1/100: FIG. 1B, FIG. 3B. The protocol: The mRNAs were translated in 25 μl rabbit reticulocyte lysate (Promega) containing [^35S]-methionine (Amersham-Pharmacia) and, where indicated, 2 eq of nuclease-treated rough microsomes prepared from dog pancreas (Martoglio et al., 1998, Cell Biology: A Laboratory Handbook. Academic Press, San Diego, Calif., vol 2, 265-274). To inhibit signal peptide peptidase (SPPase) processing, 10 μM (Z-LL)2-ketone was added to reactions (Weihofen et al., 2000 J Biol Chem 275, 30951-30956), and reactions were supplemented with 30 μM N-benzoyl-Asn-Leu-Thr-methyamide to prevent N-glycosylation of translated products (Martoglio et al., 1998, Cell Biology: A Laboratory Handbook. Academic Press, San Diego, Calif., vol 2,265-274). Samples were incubated for 30 min at 30° C. Reactions containing microsomes were next diluted with 25 μl of RM buffer (50 mM HEPES-KOH, pH7.6, 50 mM KOAc, 2 mM Mg(OAc)2, 1 mM DTT, 250 mM sucrose), and the salt concentration was raised to 500 mM KOAc. After incubation for 5 min on ice, membranes were separated by centrifugation through a 100 μl sucrose cushion (RM buffer with 500 mM KOAc and 500 mM sucrose) at 48,000 rpm for 3 min at 4° C. in a Beckman TLA100 rotor. Membrane pellets were prepared for SDS-PAGE as described (Weihofen et al., 2000 J Biol Chem. 275, 30951-30956).
This processing event was re-examined in an in vitro translation/translocation system. Two RNA substrates, that had been transcribed in vitro, were employed. One contained the E1 signal sequence and the N-terminal 100 aa of E1 (SP-E1/100), and the second consisted of the entire core protein, including the signal sequence, plus the N-terminal 100 aa of E1 (core-E1/100). These were translated in reticulocyte lysate in the presence of endoplasmic reticulum-(ER) derived rough microsomes and [^35S]-methionine. Microsomes were subsequently isolated and analysed for retention of radiolabelled translation products.

In data set [2] the test system is SPPase. Kind of data set: Photo-labelling of CHAPS-solubilised ER membrane proteins with TBL4K, anti-biotin western blot. It is filed as binding, dog. Particulars: 50 nM TBL4K. The protocol: CHAPS-solubilised ER membrane proteins were mixed with 50 nM TBL4K (dissolved in DMSO) and samples incubated at 30° C. for 1 hour. Where indicated, samples were irradiated with UV light before precipitation with 10% trichloroacetic acid. Proteins were resolved on Tris-glycine acrylamide gels, transferred to PVDF membrane and biotinylated proteins were visualised by western blotting with polyclonal anti-biotin antibody.
For analytical labelling, 2 μl of CHAPS-solubilised ER membrane proteins were diluted with 16 μl of SPPase buffet (25 mM HEPES-KOH, pH 7.6, 100 mM KOAc, 2 mM Mg(OAc)2, 1 mM DTI) and supplemented with 50 nM TBL4K (dissolved in DMSO). Samples were incubated at 30° C. for 1 hour and subsequently irradiated with UV light (30 seconds; 350 W high pressure mercury lamp with a pyrex filter, 10 cm distance to lamp). Proteins were precipitated with 10% trichloroacetic acid and resolved on either Tris-glycine acrylamide gels (10% T, 2.7% C) (Lämmli, 1970 Nature, 227, 570-574). Biotinylated proteins were visualised by Western blotting with a polyclonal anti-biotin antibody (Bethyl). Western blot analysis was performed as described in Section 3, Materials and Methods for R308 antisera. […]
In general terms: A western blot detects proteins with antibodies after separation by electrophoresis.

For data set [3], the system named is signal peptidase. Particulars: previous studies (Weihofen et al., 2000); cited from earlier work.
Data set [4] deals with BHK C13 cells. Briefly: Abundance of HCV core protein in electroporated BHK cells treated with MG132 (western blot, immunofluorescence). It is filed as cell-based, baby hamster. Particulars: MG132 for 12 hours at 37° C. The protocol: BHK cells were electroporated with RNA and 5 hours after incubation at 37° C., they were treated with MG132 for 12 hours at 37° C. Cells were either fixed with methanol for indirect immunofluorescence (A) or extracts were prepared for Western blot analysis (B and C).
For the purposes of the present invention, the cultured cells derived from baby hamster kidney (BHK) C13 cells were grown and maintained in Glasgow minimal Eagle's Medium supplemented with 10% new-born calf serum (CS), 4% tryptose phosphate broth, and 100 IU/ml penicillin/streptomycin (ETC10). To treat cells with MG132 (Boston Biochem), cultured cells were incubated for 5 hours after electroporation at 37° C. and the BHK media was replaced with fresh media containing the protease inhibitor at a final concentration of […]. Incubation was continued at 37° C. for a further 12 hours before the cells were either harvested for Western blot analysis or fixed for indirect immunofluorescence studies.

Data set [5] concerns SPPase. Kind of data set: Signal peptide processing of p-PrlPP/29 by CHAPS-solubilised ER membrane proteins containing SPPase activity. The class given is biochemical, dog. More on the design: SPF production: dose or concentration left out as unconfirmed. The protocol: Radio-labelled p-Prl^PP/29 signal peptide was generated by in vitro translation in wheat germ extract containing [^35S]-methionine. Peptide was added to CHAPS-solubilised membranes in the absence or presence of TBL4K (at the indicated final concentrations) and incubated for 1 hour at 30° C. Proteins were precipitated with 10% trichloroacetic acid and analysed by SDS-PAGE using Tris-bicine-urea acrylamide gels. Bands corresponding to signal peptide substrate (ps) and the fragment of signal peptide remaining after SPPase processing (SPF) are indicated.
The inhibitory effect of TBL4K on SPPase was assayed with CHAPS-solubilised ER membrane proteins and an in vitro translated peptide substrate. The substrate was a 29 aa residues long mutant signal peptide of pre-prolactin (p-Prl^PP/29; […]). The VV→PP mutation at the end of the signal peptide prevents cleavage by signal peptidase, which can cleave the peptide at the cryptic cleavage site at G27 when solubilised in CHAPS (B.M. unpublished). […] Proteins were precipitated by adding 4 μl of 100% trichloroacetic acid, and analysed by SDS-PAGE using Tris-bicine-urea acrylamide gels (15% T or 10% T, 5% C; 8 M urea) (Wiltfang et al., 1997 Electrophoresis 18, 527-532). […]

The test system of data set [6] is SP-E1/100 (wild type).
Data set [7] relates to SP-E1/100 MUTIII.
In data set [8] the test system is SP-E1/100 MUTII.
Data set [9] concerns SP-E1/100 MUTI.
In data set [10] the test system is core-E1/100 (wild type).
The test system of data set [11] is core-E1/100 MUTIII.
Data set [12] concerns core-E1/100 MUTII.
For data set [13], the system named is core-E1/100 MUTI.
The test system of data set [14] is T2, p-Prl^PP/29, 29 aa mutant signal peptide of pre-prolactin.
T2 sequence: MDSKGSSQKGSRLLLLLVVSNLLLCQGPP

What is called pIC50 is −log10 of the IC50, conventionally taken in molar units.

pIC50: −log10 of the molar value. Where a SMILES comes first, the peptide text is derived from it. The star is where a group is joined. Cbz = O=C(OCc1ccccc1)*

T1 sequence (A0A8I3P6M4 entry or part of it): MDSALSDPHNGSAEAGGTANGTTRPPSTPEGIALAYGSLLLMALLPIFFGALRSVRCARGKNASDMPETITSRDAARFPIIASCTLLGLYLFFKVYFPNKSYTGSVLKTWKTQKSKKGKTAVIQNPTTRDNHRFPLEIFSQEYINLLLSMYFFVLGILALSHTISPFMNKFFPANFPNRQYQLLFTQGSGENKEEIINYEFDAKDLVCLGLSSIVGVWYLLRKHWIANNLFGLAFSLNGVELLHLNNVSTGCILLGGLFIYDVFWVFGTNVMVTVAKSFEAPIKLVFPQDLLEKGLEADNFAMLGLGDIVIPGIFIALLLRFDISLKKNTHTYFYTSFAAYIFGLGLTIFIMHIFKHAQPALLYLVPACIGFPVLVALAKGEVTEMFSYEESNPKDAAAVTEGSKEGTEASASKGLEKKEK

For the compound `CC(C)C[C@H](NC(=O)OCc1ccccc1)C(=O)N[C@@H](CC(C)C)C(=O)NCC(=O)CNC(=O)[C@H](CC(C)C)NC(=O)[C@H](CC(C)C)NC(=O)OCc1ccccc1` [(Z-LL)2 ketone], the “Cleavage by SPPase of the signal peptide generated from SP-E1/100” value in data set [1] (FIG. 1A) is “blocked”. The “Production of the 19 kDa core species (core179) from core-E1/100” value in [1] is on record as “blocked”; in data set [1] (listed as SPPase inhibitor) it was “not generated”. In addition, in data set [2] (highest concentration of (Z-LL)2 ketone, FIG. 10), the “Labelling by TBL4K in presence of competitor” value is “almost completely abolished”. Further, the “Effect on cleavage by signal peptidase” value in data set [3] is “does not affect”.
As to `CC(C)C[C@@H](C=O)NC(=O)[C@H](CC(C)C)NC(=O)[C@H](CC(C)C)NC(=O)OCc1ccccc1` [MG132] (Cbz-Leu-Leu-Leu-aldehyde), in data set [4] (FIG. 7B lanes 3 and 4), the “Levels of core produced by pSF/CE1E2 (core variant lacking residues 125-144)” value was “enhanced levels”. Moreover, the “Amount of core in cells electroporated with pSF/MUTIII RNA (125-144 deleted, signal peptide mutations)” value in data set [4] (FIG. 7B lanes 5 and 6) was “did not affect”.
Consider (TDBA-LL)(Biotin-X-LL) ketone [TBL4K], for which the SPF production result in [5] (highest concentration used) is “abolished”. The pIC50 in [5] (substrate p-PrlPP/29, 1 hour at 30° C., FIG. 9, read-out: IC50 for inhibition of SPPase activity) is about 7.30. Moreover, the “Proteins labelled after UV activation” value in [2] (UV light, FIG. 10 lane 3) is recorded as “labelling of a major product of about 42 kDa”.
Regarding “signal peptide peptidase (SPPase) of ER-derived rough microsomes from dog pancreas”, the “signal peptide processing by SPPase (in vitro translation/translocation, with and without (Z-LL)2 ketone)” value in data set [6] was “the internal signal sequence at the junction of core-E1 functions as a typical ER targeting signal and is a substrate not only for signal peptidase but also for SPPase”. Further, the “processing of the signal peptide by SPPase” value in data set [7] was “less than 5% processing of the signal peptide by SPPase”. In addition, the “cleavage of the signal peptide (in vitro translation/translocation)” value in data set [8] is “cleavage of the signal peptide was reduced with both mutants, but to a greater extent with pSP/MUTII as compared to pSP/MUTI”; in [9] it was “cleavage of the signal peptide was reduced with both mutants, but to a greater extent with pSP/MUTII as compared to pSP/MUTI”. The “efficiency of processing (core179 relative to core191+core179)” value in data set [10] and in data set [13] was “reduced efficiency of processing from 40% to 12%” each time. Moreover, the “production of the 19 kDa core species (in vitro translation/translocation, with and without (Z-LL)2 ketone)” value in data set [10] is “the signal peptide at the junction of core-E1 sequences in HCV is first cleaved by signal peptidase and subsequently processed by SPPase”. Moreover, the “product cleaved by SPPase (in vitro translation/translocation)” value in [11] and in data set [12] was “failed to generate any detectable product that had been cleaved by SPPase” in each case. Moreover, the “signal peptide processing (production of the SPF fragment) with CHAPS-solubilised ER membrane proteins” value in [14] is “signal peptide processing reactions were performed with a substrate, p-Prl^PP/29, that corresponds to a mutated signal peptide of pre-prolactin, and CHAPS-solubilised ER membrane proteins containing SPPase activity”.

Values taken from patent US20050089839A1, “Assay” (priority 2001, published 2005).
